Reference: patent publication US20220313629A1, “TRANSIENT POTENTIAL MELASTATIN 8 (TRPM8) ANTAGONISTS AND RELATED METHODS” (MARSHALL UNIVERSITY RESEARCH CORPORATION, priority 2019, published 2022)

What was measured:
[1] = target: T1, TRPM8 (Homo sapiens, UniProt Q7Z2W7); assay: Whole-cell patch-clamp electrophysiology, menthol-evoked TRPM8 currents in HEK-293 cells transiently transfected with human TRPM8; type: cell-based
Procedure: HEK-293 Cell culture. Human embryonic kidney (HEK) 293 cells (ATCC CRL-1573) were cultured in growth medium comprising 90% Dulbecco's modified Eagle's medium, 10% fetal bovine serum, 100 U·mL-1 penicillin-streptomycin, and 2 mM L-glutamine (Gibco). Cells were cultured in 35 mm polystyrene dishes (Falcon) at 37° C. in the presence of 5% CO2. Cells were transiently transfected with human TRPM8 in a pIRES2 plasmid containing EGFP as a reporter. This plasmid expresses bicistronic mRNA with an internal ribosome entry site (IRES) positioned between the TRPM8 gene and the fluorescent protein reporter gene such that the reporter is not covalently fused to TRPM8. […]
Whole-cell patch-clamp electrophysiology. […] Osmolality was measured using a Vapro 5600 vapor pressure osmometer (Wescor). […] Pipettes had resistances of 2-5 MO as measured in the extracellular solution. […] Current response from each cell was measured under each concentration of Compound 14. Only one cell was measured per cover slip to prevent confounding effects of previous exposure to menthol and Compound 14.
Data analysis. For each cell, current magnitude at each concentration of Compound 14 was normalized by dividing by the maximum current measured at 500 μM menthol and without the antagonist. Normalized currents from six cells were averaged at each concentration of antagonist, and the standard error of the mean was calculated at each point. […]

[2] = target: T1, TRPM8; assay: TRPM8 antagonist activity by Fura-2 Ca2+ imaging in HEK-293 cells stably expressing human TRPM8; type: cell-based; settings: for IC50: read-out: Functional Activity hTRPM8 potency IC50 ± SEM
[3] = target: human TRPA1 (Homo sapiens, UniProt O75762); assay: TRPA1 agonist and antagonist Ca2+ flux assay (FLIPR, Fluo-8) in HEK293 cells stably expressing human TRPA1; type: cell-based; settings: for hTRPA1 % Activation (n = 3-5): normalized to Emax of AITC (300 μM)
human TRPA1, sequence (O75762 whole entry): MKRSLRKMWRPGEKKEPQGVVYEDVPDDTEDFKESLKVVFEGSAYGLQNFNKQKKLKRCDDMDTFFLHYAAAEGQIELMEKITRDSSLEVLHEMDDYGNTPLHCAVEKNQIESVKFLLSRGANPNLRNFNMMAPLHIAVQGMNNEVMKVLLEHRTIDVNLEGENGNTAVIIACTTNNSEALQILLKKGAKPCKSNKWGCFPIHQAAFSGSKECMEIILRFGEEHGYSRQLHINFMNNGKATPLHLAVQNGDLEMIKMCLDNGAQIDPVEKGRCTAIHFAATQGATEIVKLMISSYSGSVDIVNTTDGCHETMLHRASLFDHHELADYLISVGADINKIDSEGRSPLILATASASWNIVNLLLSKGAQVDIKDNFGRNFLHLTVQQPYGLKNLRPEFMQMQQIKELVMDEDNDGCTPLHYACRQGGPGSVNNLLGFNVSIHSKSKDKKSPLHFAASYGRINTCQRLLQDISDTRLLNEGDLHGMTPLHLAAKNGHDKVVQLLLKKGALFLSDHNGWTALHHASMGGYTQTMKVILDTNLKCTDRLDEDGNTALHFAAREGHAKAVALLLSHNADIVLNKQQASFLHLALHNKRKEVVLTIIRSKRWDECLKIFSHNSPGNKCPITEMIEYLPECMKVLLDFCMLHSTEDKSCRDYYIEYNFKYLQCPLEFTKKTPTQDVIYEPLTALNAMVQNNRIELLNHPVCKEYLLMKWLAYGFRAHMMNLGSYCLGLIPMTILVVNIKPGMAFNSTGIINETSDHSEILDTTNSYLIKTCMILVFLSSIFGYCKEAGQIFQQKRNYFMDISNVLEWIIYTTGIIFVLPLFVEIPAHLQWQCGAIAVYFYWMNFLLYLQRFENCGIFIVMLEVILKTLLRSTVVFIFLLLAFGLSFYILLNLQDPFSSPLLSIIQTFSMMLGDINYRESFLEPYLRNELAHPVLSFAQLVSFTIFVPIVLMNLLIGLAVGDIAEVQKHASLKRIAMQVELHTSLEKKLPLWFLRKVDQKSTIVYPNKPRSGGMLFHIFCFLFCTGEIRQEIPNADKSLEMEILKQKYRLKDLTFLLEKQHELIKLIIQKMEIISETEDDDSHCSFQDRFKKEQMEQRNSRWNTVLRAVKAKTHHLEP

[4] = tested on: icilin-induced wet-dog shakes (WDS) in ICR (CD1) mice; assay: Wet-dog shakes (WDS) assay, icilin-induced; type: in vivo, mouse
[5] = HEK293, read-out: hTRPA1 % Inhibition (n = 3)

T1 sequence (Q7Z2W7 whole entry, the tested form may be a part): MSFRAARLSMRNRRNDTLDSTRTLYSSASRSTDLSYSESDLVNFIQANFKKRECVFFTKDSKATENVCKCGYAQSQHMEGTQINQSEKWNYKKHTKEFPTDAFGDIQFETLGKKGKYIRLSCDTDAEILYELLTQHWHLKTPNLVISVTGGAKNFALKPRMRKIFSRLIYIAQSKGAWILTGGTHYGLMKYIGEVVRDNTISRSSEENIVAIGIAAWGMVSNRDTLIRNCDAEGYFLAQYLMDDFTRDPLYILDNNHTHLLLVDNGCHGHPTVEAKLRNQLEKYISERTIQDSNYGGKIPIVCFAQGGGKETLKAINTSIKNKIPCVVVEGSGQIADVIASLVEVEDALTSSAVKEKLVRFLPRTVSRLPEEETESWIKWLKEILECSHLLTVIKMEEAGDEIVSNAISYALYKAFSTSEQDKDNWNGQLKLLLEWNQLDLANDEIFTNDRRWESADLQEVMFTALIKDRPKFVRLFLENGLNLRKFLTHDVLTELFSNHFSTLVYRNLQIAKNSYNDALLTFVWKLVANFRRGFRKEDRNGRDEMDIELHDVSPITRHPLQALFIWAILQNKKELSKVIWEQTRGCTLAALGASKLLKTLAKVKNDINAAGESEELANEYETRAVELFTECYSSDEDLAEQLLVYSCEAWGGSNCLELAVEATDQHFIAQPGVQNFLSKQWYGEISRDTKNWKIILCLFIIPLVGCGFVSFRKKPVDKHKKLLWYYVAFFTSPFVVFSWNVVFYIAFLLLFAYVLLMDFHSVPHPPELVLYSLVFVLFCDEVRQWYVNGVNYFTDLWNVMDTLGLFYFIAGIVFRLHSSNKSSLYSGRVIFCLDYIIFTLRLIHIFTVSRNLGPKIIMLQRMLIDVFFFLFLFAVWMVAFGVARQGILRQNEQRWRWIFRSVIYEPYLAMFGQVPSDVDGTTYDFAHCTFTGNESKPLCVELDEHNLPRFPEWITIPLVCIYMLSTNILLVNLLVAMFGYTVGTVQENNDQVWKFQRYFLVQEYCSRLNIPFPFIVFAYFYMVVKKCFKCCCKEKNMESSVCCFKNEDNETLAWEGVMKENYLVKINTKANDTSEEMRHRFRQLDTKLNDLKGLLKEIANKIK

antagonist activity relative to a tryptamine-based antagonist in the same assay ([1]; patch clamp): 6 fold | IC50 ([1]; whole-cell patch clamp, +80 mV, 500 μM menthol, n=6 cells, read-out: IC50, inhibition of menthol-evoked TRPM8 currents): 64 ± 2 nM | effect on icilin-induced Ca2+ influx at higher concentrations ([2]; higher concentrations of the dose-response curve): nearly abolishes the Ca^2+ influx | lowest concentration still causing significant reduction in icilin-evoked TRPM8-mediated Ca2+ entry ([2]; icilin 500 nM): 3 nM | IC50 ([2]; inhibition of icilin (500 nM)-evoked Ca2+ entry, HEK-293 cells stably expressing hTRPM8, mean ± SEM, three independent experiments): 2.4 ± 1 nM | IC50 [2]: ≤ 10 nM | inhibition at 0.003 µM [3, 5]: -6 ± 5% | inhibition at 0.03 µM [3, 5]: -3 ± 2% | effect on hTRPA1-mediated responses (intrinsic and antagonist activity) ([3]; at concentrations 13- to 25-fold higher than hTRPM8 IC50): do not affect | selectivity for TRPM8 vs. TRPA1 ([3]; from FLIPR single-point assays): 13 fold | hTRPA1 % Activation (n = 3-5) ([3]; tested at 3 nM): −0.8 ± 0.4% | hTRPA1 % Activation (n = 3-5) ([3]; tested at 30 nM): 0.1 ± 1.2%
SMILES: O=C(NC1CCC2(CCCC2)CC1)c1ccc(-c2ccccc2)cc1 [Compound 14, N-(spiro[4.5]decan-8-yl)-[1,1′-biphenyl]-4-carboxamide]
effect on menthol-evoked TRPM8-mediated Ca2+ entry ([2]; compound at 3 nM against maximal (100 μM) menthol): significantly (P<0.01) reduce TRPM8-mediated Ca^2+ entry triggered by menthol | inhibition of WDS at the highest dose compared with gabapentin ([4]; 50 mg/kg s.c., gabapentin 25 mg/kg s.c.): efficacy comparable to that observed with a standard analgesic dose of gabapentin | effect on icilin-induced wet-dog shakes ([4]; 1, 30 and 50 mg/kg s.c. 30 minutes before icilin (10 mg/kg i.p.)): marked, dose-dependent antinociceptive behavior
